Data from patent publication US11643478B2, “Low-molecular-weight holothurian glycosaminoglycan and use thereof” (Suzhou Yi-hua Biomedical Technology co., Ltd, priority 2019, dated 2023).

How the values were obtained:
[1] = system: rat's learning and memory abilities of scopolamine model; assay: Platform jumping test, rat dysmnesia model induced by scopolamine; assay type: in vivo, SD rats; conditions: intragastric for 2 weeks, LHG 30 mg/Kg, Donepezil 1 mg/Kg, scopolamine 5 mg/Kg i.p.
Protocol: Grouping and dose: blank control group, scopolamine model group (SCOP), positive control group:(Donepezil, 1 mg/Kg), LHG drug group (30 mg/Kg). Administration: intragastric administration. […] Morris training on Day 9 (2 times per day). Morris water maze test and platform jumping test on Day 14. Platform jumping test: Learning and training on the first day, the repeated tests were conducted on the second day. Rats of scopolamine model group, positive control group and LHG drug group were injected with scopolamine hydrobromide through peritoneal cavity (5 mg/Kg) at 20 minutes before the test, while rats of blank control group were injected with equal volume of normal saline through peritoneal cavity. The incubation time of jumping off the platform for the first time (SDL) and the incubation time of avoiding electric shock (EL) were recorded.

[2] = system: rat's learning and memory abilities of scopolamine model; assay: Morris water maze test, rat dysmnesia model induced by scopolamine; assay type: in vivo, SD rats; conditions: intragastric for 2 weeks, LHG 30 mg/Kg, Donepezil 1 mg/Kg; scopolamine i.p.
Protocol: Grouping and dose: blank control group, scopolamine model group (SCOP), positive control group:(Donepezil, 1 mg/Kg), LHG drug group (30 mg/Kg). Administration: intragastric administration. […] Morris training on Day 9 (2 times per day). Morris water maze test and platform jumping test on Day 14. Modeling method and test of learning and memory: on the day of the test, rats of scopolamine model group, positive control group and LHG drug group were injected with scopolamine hydrobromide through peritoneal cavity (firstly injection dose is 2 mg/Kg for 2 days, then injection dose is 2 mg/Kg on Day 3) at 30 minutes after intragastric administration, while rats of blank control group were injected with equal volume of normal saline through peritoneal cavity. Morris water maze test was conducted at 20 minutes after injection. The route, time and speed of the rats in the 90s were recorded automatically with computer by the camera tracking on the swimming performance of the rats, then the escaping-incubation time of seeking the platform and swimming distance were calculated.

[3] = system: xylene inducing murine auricle swelling; assay: Xylene inducing murine auricle swelling (anti-inflammation effect); assay type: in vivo; conditions: mice, subcutaneous injection 0.01 mL/1 g for 5 days (LHG 100 mg/mL, dexamethasone 50 mg/mL), 1 h after xylene
Protocol: Drug preparation: LHG was added in ionized water to obtain 100 mg/mL LHG solution. Positive contrast: dexamethasone was added in ionized water to obtain 50 mg/mL dexamethasone solution. Blank contrast: ionized water.
Administration: sub cutaneous injection.
Experimental process: healthy mice are randomly divided into three groups (six in each group, half male and half female), name as LHG drug group, positive control group and blank control group. Three groups' mice were injected with 0.01 mL/1 g of LHG, dexamethasone and ionized water respectively. Drug was administered continuously for 5 days. 30 μL of xylenes was evenly smeared on both sides of the right ear of the mice to induce inflammation at 30 min after the last administration. The left ear was used as the reference. At 1 h after inducing inflammation, mice were executed by removing cervical vertebra. The ear pieces of the same part in the left and right ears were obtained with a hole punter, then the auricle swelling rate and inhibition rate of auricle swelling were calculated by weighing with an analytical balance.

Structure (SMILES) | Incubation time of avoiding electric shock ([1]; EL) [s] | Incubation time of jumping off the platform for the first time ([1]; SDL) [s] | Escaping-incubation time [2] [s] | Swimming distance (cm) [2] [cm] | Auricle swelling rate [3] | Inhibition rate of auricle swelling [3] [%]
COc1cc2c(cc1OC)C(=O)C(CC1CCN(Cc3ccccc3)CC1)C2 (stereo not drawn) [Donepezil] | 115.28 ± 17.54 | 48.75 ± 9.84 | 37.20 ± 12.72 | 1652.25 ± 295.02 |  | 
C[C@@H]1C[C@H]2[C@@H]3CCC4=CC(=O)C=C[C@]4(C)[C@@]3(F)[C@@H](O)C[C@]2(C)[C@@]1(O)C(=O)CO [dexamethasone] |  |  |  |  | 102.9% ± 11.3% | 24.6
